In patent US8765767B2, “Positive allosteric modulators of mGluR2” (Bristol-Myers Squibb Company, priority 2012, dated 2014):
pEC50: −log10 of the molar value.

Each molecule was assayed against T1, human mGluR2 (Homo sapiens, UniProt Q14416) (assay: mGluR2 cAMP assay (HTRF) in HEK293 cells clonally expressing human mGluR2). Details: HEK293 cells expressing human mGluR2, 1 μM forskolin, 1 μM LY-341495, 30 min.
T1 construct: expressed in transfected cells; host or cells: HEK293 clonal line
Assay type: cell-based
Protocol: • Cell Culture. Clonally expressed human mGluR2 in HEK293 background was glutamate starved overnight in media without glutamine (GIBCO MEM 12360), containing 10% FBS, 1% penicillin streptomycin. • cAMP Measurement. On the day of the assay, media was removed, cells washed with PBS, cells harvested and pelleted by centrifugation. Cell pellets were resuspended in stimulation buffer without forskolin and counted. A solution of 1.25×10^6 cells/mL was prepared and dispensed to plates using a Combi liquid handler (Thermo). A standard curve was created using a top concentration of cAMP of 1 μM in the stimulation buffer, 1:3 dilutions over 14 points in the absence of cells. Plates were read by time-resolved fluorescence at […] and a ratio was calculated via in house software, (665 nM/618 nM)*10^4. In house software converted the fluorescence value ratios to units of cAMP concentration, which is then used to calculate % inhibition for each test compound. • MGluR2 cAMP Assay Materials and Methods. Compounds were added to white, standard volume 384 non-binding surface plates (Corning 3574). Cells were resuspended in stimulation buffer consisting of Hanks Balanced Salt Solution (14175-095) pH 7.0, 20 mM HEPES, 2.0 mM CaCl2, 5.0 mM MgCl2, and 1 mM IBMX (Sigma 15879), 1 μM forskolin, and 1 μM LY-341495 for 30 min. Buffer without forskolin was used as a negative control. Solutions of D2 and cryptate detection reagents from the CISBIO dynamic cAMP kit (62AM4PEJ) were diluted 1:40 in lysis buffer. Lysis buffer consisted of 50 mM Phosphate Buffer pH 7.0, 800 mM Potassium Fluoride, 0.2% BSA, and 1.0% Triton. Assay reaction was terminated by addition of detection reagents in lysis buffer. One hour later, plates were read on a PE Viewlux. Data was extracted, and concentration response curves generated by fitting the data to a standard 4 parameter logistic equation from which EC50 values were determined.

T1 sequence (Q14416 19-872): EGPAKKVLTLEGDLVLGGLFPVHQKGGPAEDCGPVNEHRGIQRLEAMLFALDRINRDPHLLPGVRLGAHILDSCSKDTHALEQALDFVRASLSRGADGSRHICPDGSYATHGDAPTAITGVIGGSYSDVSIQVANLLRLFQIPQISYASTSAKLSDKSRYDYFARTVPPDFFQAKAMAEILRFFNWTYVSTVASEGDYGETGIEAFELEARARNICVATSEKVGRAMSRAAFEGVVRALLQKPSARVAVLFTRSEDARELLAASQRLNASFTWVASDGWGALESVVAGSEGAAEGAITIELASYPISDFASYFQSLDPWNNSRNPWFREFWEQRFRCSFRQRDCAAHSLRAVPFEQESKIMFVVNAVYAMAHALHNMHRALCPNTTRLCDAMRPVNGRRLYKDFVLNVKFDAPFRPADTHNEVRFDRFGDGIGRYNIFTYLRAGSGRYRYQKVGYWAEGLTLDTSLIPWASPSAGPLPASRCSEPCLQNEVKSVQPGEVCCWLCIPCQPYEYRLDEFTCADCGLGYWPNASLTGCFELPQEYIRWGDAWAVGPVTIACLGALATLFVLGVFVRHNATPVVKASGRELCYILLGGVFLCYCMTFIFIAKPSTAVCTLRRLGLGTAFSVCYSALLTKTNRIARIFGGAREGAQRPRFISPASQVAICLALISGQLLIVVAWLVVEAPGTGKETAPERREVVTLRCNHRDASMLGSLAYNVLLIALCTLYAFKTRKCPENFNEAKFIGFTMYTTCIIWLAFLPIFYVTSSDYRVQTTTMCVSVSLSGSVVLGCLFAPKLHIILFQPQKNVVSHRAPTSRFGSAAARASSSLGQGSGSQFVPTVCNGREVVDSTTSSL

SMILES | pEC50
COc1ccccc1C1CC1CNc1ccn2c(CC(F)(F)F)cnc2c1C#N (centres unmarked) [Example 29, 7-(((2-(2-Methoxyphenyl)cyclopropyl)methyl)amino)-3-(2,2,2-trifluoroethyl)imidazo[1,2-a]pyridine-8-carbonitrile] | 7.09
COc1c(F)ccc(F)c1[C@H]1C[C@@H]1CNc1ccn2c(CC3CC3)nnc2c1Cl [Example 10, 8-Chloro-3-(cyclopropylmethyl)-N-(((1S,2S)-2-(3,6-difluoro-2-methoxyphenyl)cyclopropyl)methyl)-[1,2,4]triazolo[4,3-a]pyridin-7-amine] | 8.22
Fc1ccccc1[C@H]1C[C@@H]1CNc1ccn2c(CC3CC3)nnc2c1Cl [Example 37, 8-Chloro-3-(cyclopropylmethyl)-N-(((1S,2S)-2-(2-fluorophenyl)cyclopropyl)methyl)-[1,2,4]triazolo[4,3-a]pyridin-7-amine] | 8.40
N#Cc1c(NCC2CC2c2cccc(F)c2)ccn2c(CC(F)(F)F)cnc12 (centres unmarked) [Example 26, 7-(((2-(3-Fluorophenyl)cyclopropyl)methyl)amino)-3-(2,2,2-trifluoroethyl)imidazo[1,2-a]pyridine-8-carbonitrile] | 7.27
Fc1ccc([C@@H]2C[C@H]2CNc2ccn3c(CC4CC4)nnc3c2C(F)(F)F)cc1 [Example 22, 3-(Cyclopropylmethyl)-N-(((1R,2R)-2-(4-fluorophenyl)cyclopropyl)methyl)-8-(trifluoromethyl)-[1,2,4]triazolo[4,3-a]pyridin-7-amine] | 9.00
Clc1c(NCC2CC2c2cccnc2)ccn2c(CC3CC3)nnc12 (centres unmarked) [Example 19, 8-chloro-3-(cyclopropylmethyl)-N-((2-(pyridin-3-yl)cyclopropyl)methyl)-[1,2,4]triazolo[4,3-a]pyridin-7-amine] | 6.44
CN(C[C@@H]1C[C@H]1c1ccc(F)cc1)c1ccn2c(CC3CC3)nnc2c1C(F)(F)F [Example 40, 3-(Cyclopropylmethyl)-N-(((1R,2R)-2-(4-fluorophenyl)cyclopropyl)methyl)-N-methyl-8-(trifluoromethyl)-[1,2,4]triazolo[4,3-a]pyridin-7-amine] | 8.15
Fc1ccc(F)c([C@@H]2C[C@H]2CNc2ccn3c(CC4CC4)nnc3c2Cl)c1 [Example 44, 8-Chloro-3-(cyclopropylmethyl)-N-(((1R,2R)-2-(2,5-difluorophenyl)cyclopropyl)methyl)-[1,2,4]triazolo[4,3-a]pyridin-7-amine] | 8.70
Fc1cnc(C2CC2CNc2ccn3c(CC4CC4)nnc3c2Cl)nc1 (centres unmarked) [Example 12, 8-Chloro-3-(cyclopropylmethyl)-N-((2-(5-fluoropyrimidin-2-yl)cyclopropyl)methyl)-[1,2,4]triazolo[4,3-a]pyridin-7-amine] | 7.08
Fc1ccc([C@H]2C[C@@H]2CNc2ccn3c(CC4CC4)nnc3c2C(F)(F)F)cc1 [Example 20, 3-(Cyclopropylmethyl)-N-(((1S,2S)-2-(4-fluorophenyl)cyclopropyl)methyl)-8-(trifluoromethyl)-[1,2,4]triazolo[4,3-a]pyridin-7-amine] | 8.70
Fc1ccc(C2CC2CNc2ccn3c(CC4CC4)nnc3c2Cl)cc1 (racemic) [Example 1, 8-chloro-3-(cyclopropylmethyl)-N-((2-(4-fluorophenyl)cyclopropyl)methyl)-[1,2,4]triazolo[4,3-a]pyridin-7-amine] | 8.05
Clc1c(NCC2CC2c2ccncc2)ccn2c(CC3CC3)nnc12 (centres unmarked) [Example 18, 8-Chloro-3-(cyclopropylmethyl)-N-((2-(pyridin-4-yl)cyclopropyl)methyl)-[1,2,4]triazolo[4,3-a]pyridin-7-amine] | 6.61
Clc1c(NC[C@H]2CCC[C@@H]2c2ccccc2)ccn2c(CC3CC3)nnc12 (single isomer, unassigned) [Example 45] | 7.92
COc1cccc(F)c1[C@H]1C[C@@H]1CNc1ccn2c(CC3CC3)nnc2c1Cl [Example 33, 8-Chloro-3-(cyclopropylmethyl)-N-(((1S,2S)-2-(2-fluoro-6-methoxyphenyl)cyclopropyl)methyl)-[1,2,4]triazolo[4,3-a]pyridin-7-amine] | 9.00
Clc1c(NC2CCC(c3ccccc3)C2)ccn2c(CC3CC3)nnc12 (centres unmarked) [Example 2, 8-Chloro-3-(cyclopropylmethyl)-N-(3-phenylcyclopentyl)-[1,2,4]triazolo[4,3-a]pyridin-7-amine] | 7.59
Clc1c(NC[C@H]2C[C@@H]2c2cccc3c2OCC3)ccn2c(CC3CC3)nnc12 [Example 35, 8-Chloro-3-(cyclopropylmethyl)-N-(((1S,2S)-2-(2,3-dihydrobenzofuran-7-yl)cyclopropyl)methyl)-[1,2,4]triazolo[4,3-a]pyridin-7-amine] | 8.52
FC(F)(F)Oc1ccccc1[C@@H]1C[C@H]1CNc1ccn2c(CC3CC3)nnc2c1Cl (relative stereo) [Example 9, Trans-8-chloro-3-(cyclopropylmethyl)-N-((2-(2-(trifluoromethoxy)phenyl)cyclopropyl)methyl)-[1,2,4]triazolo[4,3-a]pyridin-7-amine] | 8.40
Fc1cnc(C2CC2CNc2ccn3c(CC4CC4)nnc3c2C(F)(F)F)nc1 (centres unmarked) [Example 13, 3-(Cyclopropylmethyl)-N-((2-(5-fluoropyrimidin-2-yl)cyclopropyl)methyl)-8-(trifluoromethyl)-[1,2,4]triazolo[4,3-a]pyridin-7-amine] | 6.99
Clc1c(NC[C@H]2C[C@@H]2c2cccc3c2CCO3)ccn2c(CC3CC3)nnc12 [Example 11, 8-Chloro-3-(cyclopropylmethyl)-N-(((1S,2S)-2-(2,3-dihydrobenzofuran-4-yl)cyclopropyl)methyl)-[1,2,4]triazolo[4,3-a]pyridin-7-amine] | 7.92
Clc1c(NC[C@@H]2CCC[C@H]2c2ccccc2)ccn2c(CC3CC3)nnc12 (racemic) [Example 3, (+/−)Trans-8-chloro-3-(cyclopropylmethyl)-N-((2-phenylcyclopentyl)methyl)-[1,2,4]triazolo[4,3-a]pyridin-7-amine] | 8.30
COc1cccc([C@H]2C[C@@H]2CNc2ccn3c(CC4CC4)nnc3c2Cl)c1 [Example 8, 8-Chloro-3-(cyclopropylmethyl)-N-(((1S,2S)-2-(3-methoxyphenyl)cyclopropyl)methyl)-[1,2,4]triazolo[4,3-a]pyridin-7-amine] | 7.92
Fc1ccc([C@H]2C[C@@H]2CNc2ccn3c(CC(F)(F)F)cnc3c2C(F)(F)F)cc1 (stereo in doubt) [Example 31, N-(((1S,2S)-2-(4-Fluorophenyl)cyclopropyl)methyl)-3-(2,2,2-trifluoroethyl)-8-(trifluoromethyl)imidazo[1,2-a]pyridin-7-amine] | 7.62
Fc1ccc(C2(CNc3ccn4c(CC5CC5)nnc4c3Cl)CC2)cc1 [Example 16, 8-chloro-3-(cyclopropylmethyl)-N-((1-(4-fluorophenyl)cyclopropyl)methyl)-[1,2,4]triazolo[4,3-a]pyridin-7-amine] | 7.34
COc1ccccc1[C@@H]1C[C@H]1CNc1ccn2c(CC3CC3)nnc2c1Cl (relative stereo) [Example 6, Trans-8-chloro-3-(cyclopropylmethyl)-N-((2-(2-methoxyphenyl)cyclopropyl)methyl)-[1,2,4]triazolo[4,3-a]pyridin-7-amine] | 8.15
FC(F)Oc1ccccc1[C@@H]1C[C@H]1CNc1ccn2c(CC3CC3)nnc2c1Cl (relative stereo) [Example 7, Trans-8-chloro-3-(cyclopropylmethyl)-N-((2-(2-(difluoromethoxy)phenyl)cyclopropyl)methyl)-[1,2,4]triazolo[4,3-a]pyridin-7-amine] | 8.22
COc1cccc(F)c1C1CC1CNc1ccn2c(CC(F)(F)F)cnc2c1C#N (centres unmarked) [Example 27, 7-(((2-(2-Fluoro-6-methoxyphenyl)cyclopropyl)methyl)amino)-3-(2,2,2-trifluoroethyl)imidazo[1,2-a]pyridine-8-carbonitrile] | 7.70
Fc1ccc([C@H]2C[C@@H]2CNc2ccn3c(CC4CC4)nnc3c2Cl)cc1 [Example 5, 8-Chloro-3-(cyclopropylmethyl)-N-(((1S,2S)-2-(4-fluorophenyl)cyclopropyl)methyl)-[1,2,4]triazolo[4,3-a]pyridin-7-amine] | 8.30
CN(C[C@H]1C[C@@H]1c1ccc(F)cc1)c1ccn2c(CC(F)(F)F)nnc2c1C(F)(F)F [Example 41, N-(((1S,2S)-2-(4-fluorophenyl)cyclopropyl)methyl)-N-methyl-3-(2,2,2-trifluoroethyl)-8-(trifluoromethyl)-[1,2,4]triazolo[4,3-a]pyridin-7-amine] | 8.70
Fc1ccc(F)c([C@H]2C[C@@H]2CNc2ccn3c(CC4CC4)nnc3c2Cl)c1 [Example 43, 8-Chloro-3-(cyclopropylmethyl)-N-(((1S,2S)-2-(2,5-difluorophenyl)cyclopropyl)methyl)-[1,2,4]triazolo[4,3-a]pyridin-7-amine] | 8.70
